Values joined by “and” are separate entries in the source; they are usually repeats but may differ in a detail not shown here. Equal values may be shown once. Where a SMILES comes first, the peptide text is derived from it. [ ]: non-standard residue; d: D form. NMeThr(4R-Me,4-(CH2)6NHAc) = CN[C@H](C(=O)O)[C@H](O)[C@H](C)CCCCCCNC(C)=O; NMeL = CN[C@@H](CC(C)C)C(=O)O; NMeV = CN[C@H](C(=O)O)C(C)C; dNMeA = CN[C@H](C)C(=O)O; Abu = CC[C@H](N)C(=O)O
How the values were obtained:
[1] = physchem; settings: pH 7.4, aqueous buffer, kinetic from dmso stock
Protocol: (§1) The supernatant was collected, diluted 1:1 with methanol, and drug concentrations measured by HPLC (Agilent 1100 series, UV detection) relative to standard curves. The polar surface area and log P were calculated using Molinspiration Cheminformatics (V2018.10, USA). Plasma protein binding was determined by equilibrium dialysis assays. Drug plasma samples were prepared to achieve a final concentration of 5 μM in human blood plasma by 500-fold dilution of 2.5 mM DMSO-drug stocks. Plasma solutions (300 μl) and PBS, pH 7.4 (500 μl), were added to adjacent chambers of Rapid Equilibrium Dialysis units (Thermo Scientific; 8K MWCO). Plates were sealed with plastic film and shaken on an orbital shaker at 225 rpm at 37° C. for 4.5 hr. Plasma and PBS samples were collected, and drugs extracted with a zinc sulfate/methanol precipitation method. After centrifugation at 3,300 rpm for 10 min, soluble drugs in methanol supernatants were analyzed by Liquid Chromatography (LC) Electrospray Ionization (ESI) Mass Spectrometry (LC-ESI-MS) (Agilent 1100 series, Santa Clara, USA) and quantified relative to standard curves.

[2] = in vitro; settings: human, pH 7.4
Protocol: as §1

[3] = clinical; parameters: species or system human; settings: in vivo
Protocol: The study was conducted at a clinical research facility for investigational medicines (Celerion, Arizona, USA) as part of a clinical Phase 1 single-ascending-dose (SAD) study and followed all FDA ethical guidelines. Patients were selected according to standardized inclusion/exclusion criteria for a Phase I SAD study. Healthy volunteers 18-55 years of age with no evidence of ongoing disease (as determined by the study investigator), or any use of nicotine (30 days prior to screening), or drugs of abuse (within the preceding 2 years), or use of chronic prescription medication (within 30 days), or acute prescription medication (within 14 days), or systemic over-the-counter medications including vitamins and herbal/natural supplements (within 7 days prior to the study dose) were enrolled in the study. The SMEDDS was dispensed (approximately 3 ml) into a 100 ml Gibco clear bottle and a 15-fold excess of filtered water (HPLC grade) was added. The mixture was swirled gently for 1-2 minutes until fully dispersed. The SMEDDS in-water dose was placed in the refrigerator and orally administered within 2 hours. […] Samples were immediately frozen and analyzed by LC-ESI-MS within 5 days. Briefly, whole blood samples were thawed and extracted using a zinc sulfate/methanol precipitation method.

[4] = in vivo; parameters: species or system Sprague Dawley rats; settings: Sprague Dawley, rat, po, 30 mg/kg/day, liver level relative to whole blood
Protocol: SERIES 1 1/3/3/2/9 (Vitamin E/Maisine® CC/Propylene Glycol/Ethanol/Cremophor® RH40 (w/w/w/w/w)) CRV431 SMEDDS (50 mg/ml) was administered to Sprague Dawley rats (n=6) by oral gavage at 30 mg/kg/day for 7 days. At 12 hours post-dose on day 7, the animals were sacrificed and whole blood and livers were extracted and frozen. CRV431 was quantitated in whole blood using LC-ESI-MS (as for the human pharmacokinetic studies). For quantitation of CRV431 in liver, one gram samples of liver tissue were added to 9 ml of homogenizing solution (1% formic acid in water) and homogenized using a TissueLyser (Qiagen) at 30 Hz for 10 minutes. Aliquots were removed and analyzed by LC-ESI-MS as described above.

CC[C@@H]1NC(=O)[C@H]([C@H](O)[C@H](C)CCCCCCNC(C)=O)N(C)C(=O)[C@H](C(C)C)N(C)C(=O)[C@H](CC(C)C)N(C)C(=O)[C@H](CC(C)C)N(C)C(=O)[C@@H](C)NC(=O)[C@H](C)NC(=O)[C@H](CC(C)C)N(C)C(=O)[C@H](C(C)C)NC(=O)[C@H](CC(C)C)N(C)C(=O)[C@@H](C)N(C)C1=O [CRV431] (cyclo(A[dA][NMeL][NMeL][NMeV][NMeThr(4R-Me,4-(CH2)6NHAc)][Abu][dNMeA][NMeL]V[NMeL]))
solubility [1]: 115 µg/mL and 115 µM
fraction unbound at 4.5 hr, 5 μM [2]: 0.076
half-life ([3]; human): ~100 h
Cmax ([3]; human, po, 1 mg/kg): 334 ± 106 ng/mL
Cmax relative to Neoral® ([3]; 2.5 mg/kg): slightly greater than Neoral®
overall exposure (AUC) relative to Neoral® ([3]; 2.5 mg/kg): approximately 14 times
Kp [4]: 6.5

From patent US20250057807A1, “TREATING A DISEASE USING A […] ACTIVE INGREDIENT PRESENT IN A PSEUDO-TERNARY PHASE SYSTEM” (Hepion Pharmaceuticals, Inc., priority 2018, published 2025)
